Common to all, as to assay: NCI tumour cell line growth inhibition, 48 h
The subject of assay [1] is T-47D breast.
The subject of assay [2] is NCI/ADR-RES ovarian.
Assay [3] concerns SK-OV-3 ovarian.
The subject of assay [4] is HS 578T breast.
Assay [5] relates to UO-31 renal.
The subject of assay [6] is SW-620 colon.
Assay [7] has as its system SF-268 CNS.
Assay [8] concerns SR leukemia.
Assay [9] deals with NCI-H23 lung.
For assay [10], the system named is HCC-2998 colon.

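Exposure lasted 48 hours, with cells grown in 96-well plates and compounds tested at five concentrations. GI50 marks 50% less growth. TGI: concentration producing complete growth inhibition.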

Turning to `CC1(CCCC2(C)CCNC2=O)OCCO1` (stereo not given), the TGI in assay [1], in assay [2], in assay [3], in assay [4], in assay [5] and in [6] was more than 10 µM each time. Further, the TGI in assay [7], in assay [8], in [9] and in [10] was more than 10 µM in each case.

In the case of `O=C(Cn1ccnc1[N+](=O)[O-])NCCO`, the TGI in assay [1], in assay [2], in [3], in [4], in assay [5] and in assay [6] was more than 100 µM in each case. The TGI in assay [7], in [8], in assay [9] and in [10] was more than 100 µM throughout.

Take `CCc1cc(C(N)=O)ccc1-n1nc(C(C)C)c2c(-n3cnc(-c4cnn(C)c4)c3)ccnc21`: the GI50 in [1] was 1830 nM; in [2], 32.8 µM; in assay [3], 492 nM; in assay [4], 12 µM; in assay [5], 3250 nM; in assay [6], 536 nM. For the same molecule, the GI50 was 8.76 µM in [7], 546 nM in [8], 1140 nM in assay [9] and 3390 nM in assay [10]. Also, the TGI in assay [1], in [2], in [3], in assay [4], in [5] and in assay [6] was more than 100 µM each time. Further, the TGI in assay [7], in assay [8], in [9] and in [10] was more than 100 µM throughout.

Consider `COc1ccc(C(=O)/C=C/c2ccc(Cl)cc2)cc1S(N)(=O)=O`, for which the GI50 was 3200 nM in assay [1]; 3.64 µM in assay [2]; 5960 nM in [3]; 3.28 µM in assay [4]; 1890 nM in [5]; 1760 nM in [6]. The GI50 in assay [7] was 3.13 µM; in [8] it was 865 nM; in assay [9], 2540 nM; in assay [10] it was 1780 nM. The TGI in assay [1] is 14.4 µM; in assay [2] it was 24 µM; in assay [3] it was 18.6 µM; in [4] it was 18.4 µM; in [5] it was 5.76 µM; in [6], 3.85 µM. The TGI stood at 11.9 µM in assay [7], 6.86 µM in [8], 7.06 µM in assay [9] and 3.65 µM in assay [10].

Consider `CCN(CC)CCn1c(=N)n(CC(O)c2ccc(Cl)c(Cl)c2)c2ccccc21` (stereo not given), for which the GI50 in assay [1] is 4680 nM; in assay [2], 17.7 µM; in [3], 11900 nM; in [4], 4.25 µM; in assay [5], 6970 nM; in [6], 11000 nM. For the same molecule, the GI50 was 11.9 µM in [7], 2120 nM in assay [8], 15000 nM in [9] and 2340 nM in assay [10]. For the same molecule, the TGI in assay [1] stood at 19.3 µM; in assay [2] it was 36.8 µM; in assay [3] it was 24.1 µM; in assay [4], 21.2 µM; in assay [5] it was 20.4 µM; in [6], 24.8 µM. Moreover, the TGI was determined as 25.3 µM in assay [7], 5.56 µM in assay [8], 32.5 µM in assay [9] and 5.3 µM in [10].

On to `COc1ccc(C(=O)c2cc3c(N)c(C(=O)Nc4cccc(Cl)c4)sc3nc2C)cc1`, for which the GI50 in assay [1] is 2520 nM; in assay [2] it was 1.49 µM; in [3], 1580 nM; in [4], 0.957 µM; in assay [5], 2500 nM; in [6] it was 1670 nM. In addition, the GI50 is 2.49 µM in [7], 1150 nM in assay [8], 2530 nM in assay [9] and 1920 nM in [10]. Besides, the TGI was more than 33.3 µM in assay [1]; more than 33.3 µM in assay [2]; more than 33.3 µM in assay [3]; 6.62 µM in assay [4]; more than 33.3 µM in assay [5]; more than 33.3 µM in [6]. Further, the TGI in assay [7], in [8], in assay [9] and in assay [10] was more than 33.3 µM throughout.

`CC(C)Oc1cc(OCC(=O)O)cc(C(=O)N(CCC(N)=O)C(=O)Nc2ccc(C(=O)O)cc2OC(C)C)c1`: the GI50 in [1] is more than 100000 nM; in assay [2], more than 100 µM; in [3], more than 100000 nM; in [4], more than 100 µM; in [5] it was more than 100000 nM; in assay [6], more than 100000 nM. The GI50 is more than 100 µM in assay [7], more than 100000 nM in assay [8], more than 100000 nM in [9] and more than 100000 nM in assay [10]. The TGI in [1], in [2], in [3], in [4], in [5] and in [6] was more than 100 µM throughout. The TGI in assay [7], in assay [8], in [9] and in assay [10] was more than 100 µM each time.

On to `COc1c2occc2c(OC)c2c(=O)c(S(=O)(=O)NC(=O)Nc3ccc(Cl)cc3)coc12`, for which the TGI in assay [1], in [2], in assay [3], in assay [4], in assay [5] and in assay [6] was more than 10 µM throughout. Moreover, the TGI in [7], in [8], in [9] and in [10] was more than 10 µM each time.

With `COc1cc(-c2cc(-c3ccc(N(C)C)cc3)nc(N3CCC(O)CC3)c2C#N)cc(OC)c1OC`, the GI50 was 458 nM in [1]; 0.35 µM in [2]; 2110 nM in assay [3]; 5.66 µM in assay [4]; 349 nM in assay [5]; 448 nM in assay [6]. Besides, the GI50 in [7] was 1.22 µM; in assay [8], 432 nM; in assay [9], 1350 nM; in [10], 540 nM. For the same molecule, the TGI in assay [1] was 4.07 µM; in assay [2] it was more than 19.8 µM; in assay [3], 57.7 µM; in assay [4], more than 100 µM; in assay [5], 3.34 µM; in assay [6], more than 35.6 µM. The TGI was 5.31 µM in assay [7], 2.94 µM in assay [8], 6.74 µM in assay [9] and 6.48 µM in assay [10].
